In ChEMBL document CHEMBL1201862, “PubChem BioAssay data set” (2004):
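Protocol summary: plate cells (96-well), add compound at 5 concentrations, incubate 48 h, interpolate endpoints linearly. The concentration for 50% growth inhibition is given as GI50.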 Active and inactive are the calls of the source. No stated cut-off is given here; in the data, active = GI50 up to about 1.1 µM and inactive = higher.

Legend:
Test in all cases: NCI tumour cell line growth inhibition, 48 h
[1] = tested on: A498
[2] = tested on: ACHN
[3] = tested on: CAKI-1
[4] = tested on: HCT-116
[5] = tested on: HL-60
[6] = tested on: KM12
[7] = tested on: LOX IMVI
[8] = tested on: Malme-3M
[9] = tested on: NCI-H226
[10] = tested on: NCI-H23
[11] = tested on: NCI-H460
[12] = tested on: OVCAR-4
[13] = tested on: OVCAR-5
[14] = tested on: RXF 393
[15] = tested on: SF-268
[16] = tested on: SF-539
[17] = tested on: SN12C
[18] = tested on: SW-620
[19] = tested on: T47D
[20] = tested on: MDA-MB-231

Structure (SMILES)	GI50 [1]	GI50 [2]	GI50 [3]	GI50 [4]	GI50 [5]	GI50 [6]	GI50 [7]	GI50 [8]	GI50 [9]	GI50 [10]	GI50 [11]	GI50 [12]	GI50 [13]	GI50 [14]	GI50 [15]	GI50 [16]	GI50 [17]	GI50 [18]	GI50 [19]	GI50 [20]
CCOP(=O)(C=C=C1CCC2[C@@H]3CCc4cc(OC)ccc4C3CC[C@]12C)OCC (stereo partly drawn)	12 µM (inactive)	10.3 µM (inactive)	12.9 µM (inactive)	5.22 µM (inactive)	0.0222 µM (active)	12.4 µM (inactive)	9.06 µM (inactive)	15.6 µM (inactive)	5.43 µM (inactive)	5.73 µM (inactive)	7.82 µM (inactive)	6.24 µM (inactive)	17 µM (inactive)	1.98 µM (inactive)	11.9 µM (inactive)	14.9 µM (inactive)	10.4 µM (inactive)	12 µM (inactive)	6.22 µM (inactive)	
O=C(O)c1cc2ccccc2oc1=O [COUMARIN-3-CARBOXYLIC ACID]	> 100 µM (inactive)	> 100 µM (inactive)	> 100 µM (inactive)	> 100 µM (inactive)	> 100 µM (inactive)	> 100 µM (inactive)	> 100 µM (inactive)	> 100 µM (inactive)	> 100 µM (inactive)	> 100 µM (inactive)	> 100 µM (inactive)	> 100 µM (inactive)	> 100 µM (inactive)	> 100 µM (inactive)	> 100 µM (inactive)	> 100 µM (inactive)	> 100 µM (inactive)	> 100 µM (inactive)		> 100 µM (inactive)
COc1cc(/C=C2\N=C(c3ccccc3)N(c3ccc(C(=O)c4ccccc4)cc3N3C(=O)/C(=C/c4ccc(O)c(OC)c4)N=C3c3ccccc3)C2=O)ccc1O	6.92 µM (inactive)	17.5 µM (inactive)	18.7 µM (inactive)	5.62 µM (inactive)	5.09 µM (inactive)	8.73 µM (inactive)	10.5 µM (inactive)				4.66 µM (inactive)	14.9 µM (inactive)	32.4 µM (inactive)		15.3 µM (inactive)	5.15 µM (inactive)	17.9 µM (inactive)	7.53 µM (inactive)	5.18 µM (inactive)	12.9 µM (inactive)
O=C(/C=C/c1c[nH]c2ccccc12)c1ccccc1O	15.1 µM (inactive)	12.6 µM (inactive)		12.9 µM (inactive)	13.6 µM (inactive)	11.3 µM (inactive)	5.08 µM (inactive)	11.7 µM (inactive)	16.7 µM (inactive)		13.2 µM (inactive)	10.7 µM (inactive)	13.6 µM (inactive)		16.6 µM (inactive)	12.6 µM (inactive)	13.8 µM (inactive)	18.5 µM (inactive)	1.75 µM (inactive)	3.18 µM (inactive)
CC(C)SC(C)(NC(=O)C1C(C)(C)CCC1(C)C)C(=O)O (stereo not drawn)	> 100 µM (inactive)	> 100 µM (inactive)		> 100 µM (inactive)	> 100 µM (inactive)		> 100 µM (inactive)		> 100 µM (inactive)	> 100 µM (inactive)	> 100 µM (inactive)		> 100 µM (inactive)		> 100 µM (inactive)	> 100 µM (inactive)	> 100 µM (inactive)	> 100 µM (inactive)	> 100 µM (inactive)	> 100 µM (inactive)
COc1ccc2c(c1)c(CC(=O)O)c(C)n2C(=O)c1ccc(Cl)cc1		> 100 µM (inactive)	29.6 µM (inactive)	> 100 µM (inactive)	44.3 µM (inactive)	60.8 µM (inactive)	> 100 µM (inactive)	68.7 µM (inactive)	98.4 µM (inactive)	57 µM (inactive)	39.9 µM (inactive)	> 100 µM (inactive)	> 100 µM (inactive)		> 100 µM (inactive)	98.2 µM (inactive)	> 100 µM (inactive)	> 100 µM (inactive)	52.6 µM (inactive)	> 100 µM (inactive)
CC#CC(O)(C(=O)OC1CC(C)N(C)C(C)(C)C1)C1CCCC1 (stereo not drawn)		> 100 µM (inactive)	> 100 µM (inactive)	> 100 µM (inactive)	> 100 µM (inactive)	> 100 µM (inactive)	> 100 µM (inactive)	> 100 µM (inactive)	> 100 µM (inactive)	> 100 µM (inactive)			> 100 µM (inactive)	> 100 µM (inactive)	> 100 µM (inactive)	> 100 µM (inactive)	> 100 µM (inactive)	> 100 µM (inactive)	> 100 µM (inactive)	> 100 µM (inactive)
Cc1ccc(O)c(C2=CC(c3cccc(Cl)c3)SC(=N)N2)c1 (stereo not drawn)		24.2 µM (inactive)	28.2 µM (inactive)	19.3 µM (inactive)	30 µM (inactive)	24.9 µM (inactive)	18.6 µM (inactive)	24.2 µM (inactive)	16.6 µM (inactive)	26.6 µM (inactive)	23.9 µM (inactive)	1.77 µM (inactive)	26.2 µM (inactive)	23.1 µM (inactive)	32.2 µM (inactive)	23 µM (inactive)	16.9 µM (inactive)	24.4 µM (inactive)	23.8 µM (inactive)	
Nc1ccc2nc(-c3cccc(Cl)c3)cc(O)c2c1		5.93 µM (inactive)				4.23 µM (inactive)		3.26 µM (inactive)		5.79 µM (inactive)	4.39 µM (inactive)		> 100 µM (inactive)			2.11 µM (inactive)	8.38 µM (inactive)	3.55 µM (inactive)	5.96 µM (inactive)	26.5 µM (inactive)
O=C1OC(c2ccccc2)N/C1=C\c1ccc2c(c1)OCO2 (stereo not drawn)		> 100 µM (inactive)	> 100 µM (inactive)	> 100 µM (inactive)	0.219 µM (active)	46.7 µM (inactive)	53.3 µM (inactive)		34 µM (inactive)	> 100 µM (inactive)	> 100 µM (inactive)	36.7 µM (inactive)	> 100 µM (inactive)	> 100 µM (inactive)	> 100 µM (inactive)	29.4 µM (inactive)	> 100 µM (inactive)	> 88.1 µM (inactive)	> 100 µM (inactive)	> 100 µM (inactive)
COc1cc(Br)cc2cc(C3=CSC4=NCCN34)c(=O)oc12		28.3 µM (inactive)	34.7 µM (inactive)	17.8 µM (inactive)	29.4 µM (inactive)	20 µM (inactive)	18.2 µM (inactive)			20.1 µM (inactive)	19.9 µM (inactive)	18.2 µM (inactive)	23.3 µM (inactive)	17.5 µM (inactive)		19.9 µM (inactive)	17.5 µM (inactive)	25.3 µM (inactive)	17.5 µM (inactive)	19.6 µM (inactive)
O=c1c(NO)c([N+](=O)[O-])cnn1-c1ccccc1	20.6 µM (inactive)	8.53 µM (inactive)	5.53 µM (inactive)	2.62 µM (inactive)	0.789 µM (active)	9.62 µM (inactive)	1.79 µM (inactive)	4.6 µM (inactive)	7.87 µM (inactive)	6.55 µM (inactive)	4.88 µM (inactive)	3.81 µM (inactive)	7.28 µM (inactive)	5.92 µM (inactive)	12.5 µM (inactive)	15.2 µM (inactive)	3.08 µM (inactive)	1.75 µM (inactive)	1.83 µM (inactive)	
CCOC(=O)CNc1c(OCc2ccccc2)c(=O)c1=O		> 100 µM (inactive)		> 100 µM (inactive)		> 100 µM (inactive)		> 100 µM (inactive)	> 100 µM (inactive)	> 100 µM (inactive)		> 100 µM (inactive)	> 100 µM (inactive)	> 100 µM (inactive)	> 100 µM (inactive)		> 100 µM (inactive)	> 100 µM (inactive)	> 100 µM (inactive)	> 100 µM (inactive)
COC(=O)C1(Cc2cccc(Cl)c2)CCCCCCN1C(=O)c1ccccc1 (stereo not drawn)	15.4 µM (inactive)	9.46 µM (inactive)		13.1 µM (inactive)	5.97 µM (inactive)		17.5 µM (inactive)	12.2 µM (inactive)	25.1 µM (inactive)	17.2 µM (inactive)	15.2 µM (inactive)	14.5 µM (inactive)	15.8 µM (inactive)		20.6 µM (inactive)		14.5 µM (inactive)	18.2 µM (inactive)	14.4 µM (inactive)	13 µM (inactive)
Nc1nc(N)c2ncn(Cc3ccccc3CCl)c2n1	> 100 µM (inactive)	> 100 µM (inactive)	> 100 µM (inactive)	> 100 µM (inactive)	0.115 µM (active)	> 100 µM (inactive)		> 100 µM (inactive)	> 100 µM (inactive)	> 100 µM (inactive)	> 100 µM (inactive)	80.5 µM (inactive)	> 100 µM (inactive)		> 100 µM (inactive)	> 100 µM (inactive)	> 100 µM (inactive)	> 100 µM (inactive)	> 100 µM (inactive)	> 100 µM (inactive)
CCN(CC)C(=S)N/N=C/c1ccccn1		< 0.0172 µM (active)	< 0.01 µM (active)	< 0.01 µM (active)	< 0.0149 µM (active)		< 0.01 µM (active)	0.0205 µM (active)	< 0.0138 µM (active)	< 0.01 µM (active)	0.0143 µM (active)		0.2 µM (active)		< 0.0177 µM (active)	< 0.0382 µM (active)	0.0212 µM (active)	< 0.01 µM (active)	< 0.01 µM (active)	< 0.01 µM (active)
CCOP(=O)(CN1CCNCCNCC1)OCC	> 100 µM (inactive)	> 100 µM (inactive)	> 100 µM (inactive)	> 100 µM (inactive)	92.7 µM (inactive)	> 100 µM (inactive)	> 100 µM (inactive)		> 100 µM (inactive)		> 100 µM (inactive)	> 100 µM (inactive)	> 100 µM (inactive)			> 100 µM (inactive)	> 100 µM (inactive)	> 100 µM (inactive)	> 100 µM (inactive)	> 100 µM (inactive)
